Results from the supplement of paper PMC4862054.

Tests used:
Conditions in all cases: incubation time: 72 h
BT-474 [1] = experiment: normalised response (% of control), CellTox Green; higher = less cell death (100 = DMSO, 0 = benzethonium chloride kill control)
Procedure, shortened: (§1)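 After 72 h with compound in 384-well plates, breast cancer cell lines seeded as 20 µl suspension were read for CellTox Green fluorescence at 485/520 nm. CellTiter-Glo luminescence was then read after 10 min at room temperature. Compound was present at 5 concentrations in 10-fold steps over a 10,000-fold range set per compound, and plates were normalised to 0.1 % DMSO (100) and a positive kill control (0). Values are normalised signals, each at a single concentration.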

BT-549 [2] = experiment: as above
Procedure, shortened: as §1

CAL-120 [3] = experiment: as above
Procedure, shortened: as §1

CAL-148 [4] = experiment: as above
Procedure, shortened: as §1

CAL-51 [5] = experiment: as above
Procedure, shortened: as §1

CAL-85-1 [6] = experiment: as above
Procedure, shortened: as §1

DU-4475 [7] = experiment: as above
Procedure, shortened: as §1

HCC1143 [8] = experiment: as above
Procedure, shortened: as §1

HCC1599 [9] = experiment: as above
Procedure, shortened: as §1

HDQ-P1 [10] = experiment: as above
Procedure, shortened: as §1

Hs578T [11] = experiment: as above
Procedure, shortened: as §1

MCF-10A [12] = experiment: as above
Procedure, shortened: as §1

MDA-MB-231 [13] = experiment: as above
Procedure, shortened: as §1

MDA-MB-436 [14] = experiment: as above
Procedure, shortened: as §1

MDA-MB-453 [15] = experiment: as above
Procedure, shortened: as §1

MDA-MB-468 [16] = experiment: as above
Procedure, shortened: as §1

MFM-223 [17] = experiment: as above
Procedure, shortened: as §1

BT-474 [18] = experiment: normalised response (% of control), CellTiter-Glo; higher = more viable cells (100 = DMSO, 0 = benzethonium chloride kill control)
Procedure: (§2)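 DSRT, 72 h incubation, CellTox Green / CellTiter-Glo readout. Signal is normalised to DMSO and benzethonium chloride controls. Value is the normalised response at the highest dose.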

BT-549 [19] = experiment: as above
Procedure: as §2

CAL-120 [20] = experiment: as above
Procedure: as §2

CAL-148 [21] = experiment: as above
Procedure: as §2

CAL-51 [22] = experiment: as above
Procedure: as §2

CAL-85-1 [23] = experiment: as above
Procedure: as §2

DU-4475 [24] = experiment: as above
Procedure: as §2

HCC1143 [25] = experiment: as above
Procedure: as §2

HCC1599 [26] = experiment: as above
Procedure: as §2

HCC1937 [27] = experiment: as above
Procedure: as §2

HDQ-P1 [28] = experiment: as above
Procedure: as §2

Hs578T [29] = experiment: as above
Procedure: as §2

MCF-10A [30] = experiment: as above
Procedure: as §2

MDA-MB-231 [31] = experiment: as above
Procedure: as §2

MDA-MB-436 [32] = experiment: as above
Procedure: as §2

MDA-MB-453 [33] = experiment: as above
Procedure: as §2

MDA-MB-468 [34] = experiment: as above
Procedure: as §2

MFM-223 [35] = experiment: as above
Procedure: as §2

SK-BR-3 = experiment: as above
Procedure: as §2

HCC1937 [36] = experiment: normalised response (% of control), CellTox Green; higher = less cell death (100 = DMSO, 0 = benzethonium chloride kill control)
Procedure, shortened: as §1

| Compound | normalised response (BT-474 [1]) [%] | normalised response (BT-549 [2]) [%] | normalised response (CAL-120 [3]) [%] | normalised response (CAL-148 [4]) [%] | normalised response (CAL-51 [5]) [%] | normalised response (CAL-85-1 [6]) [%] | normalised response (DU-4475 [7]) [%] | normalised response (HCC1143 [8]) [%] | normalised response (HCC1599 [9]) [%] | normalised response (HDQ-P1 [10]) [%] | normalised response (Hs578T [11]) [%] | normalised response (MCF-10A [12]) [%] | normalised response (MDA-MB-231 [13]) [%] | normalised response (MDA-MB-436 [14]) [%] | normalised response (MDA-MB-453 [15]) [%] | normalised response (MDA-MB-468 [16]) [%] | normalised response (MFM-223 [17]) [%] | normalised response (BT-474 [18]) [%] | normalised response (BT-549 [19]) [%] | normalised response (CAL-120 [20]) [%] | normalised response (CAL-148 [21]) [%] | normalised response (CAL-51 [22]) [%] | normalised response (CAL-85-1 [23]) [%] | normalised response (DU-4475 [24]) [%] | normalised response (HCC1143 [25]) [%] | normalised response (HCC1599 [26]) [%] | normalised response (HCC1937 [27]) [%] | normalised response (HDQ-P1 [28]) [%] | normalised response (Hs578T [29]) [%] | normalised response (MCF-10A [30]) [%] | normalised response (MDA-MB-231 [31]) [%] | normalised response (MDA-MB-436 [32]) [%] | normalised response (MDA-MB-453 [33]) [%] | normalised response (MDA-MB-468 [34]) [%] | normalised response (MFM-223 [35]) [%] | normalised response (SK-BR-3) [%] | normalised response (HCC1937 [36]) [%] |
| --- | --- | --- | --- | --- | --- | --- | --- | --- | --- | --- | --- | --- | --- | --- | --- | --- | --- | --- | --- | --- | --- | --- | --- | --- | --- | --- | --- | --- | --- | --- | --- | --- | --- | --- | --- | --- | --- |
| O=C(O)c1ccc(-c2c[nH]c3ncc(-c4ccccc4)cc23)cc1C1CCCC1 (10000 nM) | 95.4 | 99.3 | 99.2 | 91.6 | 63.4 | 119 | 97.5 | 117 | 94 | 91 | 117 | 83.6 | 92.8 | 57.9 | 102 | 90.1 | 66.2 | 86.7 | 74.5 | 94.5 | 94.4 | 92.7 | 99.3 | 86.2 | 97.8 | 105 | 105 | 107 | 89 | 97.1 | 94.1 | 84.2 | 105 | 57 | 95 | 58.7 | – |
| NC(=O)Nc1cc(-c2cccc(F)c2)sc1C(=O)N[C@H]1CCCNC1 [AZD7762] (1000 nM) | 91.9 | 94.3 | 91.8 | 87.1 | 14.1 | -20.6 | 99.9 | 103 | 98 | 90.3 | 40.7 | 90.8 | 48.5 | 84.9 | 87 | 75.8 | 95.8 | 43 | 21.2 | 55.7 | 106 | 45.3 | 15.2 | 89.3 | 23.7 | 10.2 | 26.4 | 28 | 22.1 | 31.1 | 32 | 28.8 | 40.8 | 31.7 | 64.2 | 12 | 65.8 |
| COc1cc2ncnc(Nc3ccc(F)c(Cl)c3)c2cc1NC(=O)/C=C/CN1CCCCC1 [Dacomitinib] (1000 nM) | – | 74.8 | 98.7 | 96.7 | 109 | 38.7 | 99.1 | 75.7 | 99.1 | 94.1 | 115 | 96.8 | 103 | – | 96.3 | 121 | 99.5 | 86.8 | 80.9 | 95.6 | 83.9 | 116 | 46.8 | 97.8 | 94 | 105 | 84.3 | 68.1 | 90.7 | 35.8 | 84.5 | 84.4 | 56.2 | 65.3 | 93.1 | 21.1 | – |
| CC(C)Cn1cnc2c(N)nc3ccccc3c21 [Imiquimod] (2500 nM) | 101 | 72.1 | 96.6 | 100 | 106 | 83.7 | 99.3 | 104 | 101 | – | 130 | 88.2 | 96.5 | 102 | 93.9 | – | – | 96 | 98 | 95.8 | 106 | 92.8 | 104 | 103 | 94.5 | 94.9 | 99.6 | 103 | 105 | 95 | 98.2 | 106 | 105 | 109 | 103 | 106 | 106 |
